Key:
Format in all cases: functional
[1] = test system: Athalia rosae ruficornis; assay: Induction of feeding in larvae of Athalia rosae ruficornis on leaves of Ajuga decumbens assessed as feeding response measured for 10 seconds relative to control; design: concentration or dose not given beside the values
[2] = test system: Athalia rosae ruficornis; assay: Induction of feeding in larvae of Athalia rosae ruficornis on leaves of Ajuga decumbens assessed as feeding response at 0.1 ug/64 mm'2 of filter paper measured for 10 seconds
[3] = test system: Athalia rosae ruficornis; assay: Induction of feeding in larvae of Athalia rosae ruficornis on leaves of Ajuga decumbens assessed as feeding response at 10 ug/64 mm'2 of filter paper measured for 10 seconds

Row | Structure (SMILES) | Activity [1] [%] | Activity [2] [%] | Activity [3] [%]
1 | C/C=C(\C)C(=O)O[C@@H]1CC[C@]2(CO2)[C@]2(COC(C)=O)[C@@H](OC(C)=O)C[C@@H](C)[C@](C)(C[C@H](O)C3=CC(=O)OC3)[C@@H]12 [AJUGAMARIN A1] | 46.3 | 0 | 0
2 | C/C=C(\C)C(=O)O[C@@H]1CC[C@]2(CO2)[C@]2(COC(C)=O)[C@@H](OC(C)=O)C[C@@H](C)[C@](C)(C[C@H](OC(=O)[C@@H](C)CC)C3=CC(=O)OC3)[C@@H]12 [AJUGAMARIN G1] | 9.3 | 0 | 0
3 | C/C=C(\C)C(=O)O[C@@H](C[C@@]1(C)[C@H](C)C[C@H](OC(C)=O)[C@]2(COC(C)=O)[C@@H]1[C@H](OC(=O)[C@@H](C)CC)CC[C@]21CO1)C1=CC(=O)OC1 [AJUGAMARIN H1] | 7 | 0 | 0
4 | C/C=C(\C)C(=O)O[C@@H](C[C@@]1(C)[C@H](C)C[C@H](OC(C)=O)[C@]2(COC(C)=O)[C@@H]1[C@H](OC(=O)/C(C)=C/C)CC[C@]21CO1)C1=CC(=O)OC1 [AJUGATAKASIN A] | 28.4 | 0 | 0
5 | CC[C@H](C)C(=O)O[C@@H](C[C@@]1(C)[C@H](C)C[C@H](OC(C)=O)[C@]2(COC(C)=O)[C@@H]1[C@H](OC(=O)[C@@H](C)CC)CC[C@]21CO1)C1=CC(=O)OC1 [AJUGATAKASIN B] | 0.4 | 0 | 0
6 | CC[C@H](C)C(=O)O[C@H]1[C@H](O)C[C@@H]2[C@@](C)([C@@H]3C[C@H]4C=CO[C@H]4O3)[C@H](C)C[C@H](OC(C)=O)[C@@]2(COC(C)=O)[C@@]12CO2 [CLERODENDRIN D] | 0.08 | 88 | 100
7 | CCC(C)C(=O)O[C@@H]1CC[C@]2(CO2)[C@]2(COC(C)=O)[C@@H](OC(C)=O)C[C@@H](C)[C@](C)(C[C@H](O)C3=CC(=O)OC3)[C@@H]12 (stereo partly specified) [DIHYDROAJUGAMARIN] | 8.6 | 0 | 0

— ChEMBL document CHEMBL3045983, “Ajugatakasins A and B, New Diterpenoids fromAjuga decumbens, and Feeding Stimulative Activity of Related Neoclerodane Analogs toward the Turnip Sawfly” (1997)
